Assay results from PMC5607274, “An iterative compound screening contest method for identifying target protein inhibitors using the tyrosine-protein kinase Yes” (Scientific Reports, 2017).

The compounds below were run against T1, human recombinant Yes [a.a. 2–543 (end)] (Homo sapiens, UniProt P07947) (assay: ADP-Glo kinase assay, inhibition rates of Yes phosphorylation activity (first and second screening)). Conditions: first screening; mean of n = 4 wells; 10 μmol L−1 compound.
T1 construct: human recombinant Yes [a.a; 2–543 (end)]; purchased BPS Bioscience 40488
T1 sequence (P07947 2-543): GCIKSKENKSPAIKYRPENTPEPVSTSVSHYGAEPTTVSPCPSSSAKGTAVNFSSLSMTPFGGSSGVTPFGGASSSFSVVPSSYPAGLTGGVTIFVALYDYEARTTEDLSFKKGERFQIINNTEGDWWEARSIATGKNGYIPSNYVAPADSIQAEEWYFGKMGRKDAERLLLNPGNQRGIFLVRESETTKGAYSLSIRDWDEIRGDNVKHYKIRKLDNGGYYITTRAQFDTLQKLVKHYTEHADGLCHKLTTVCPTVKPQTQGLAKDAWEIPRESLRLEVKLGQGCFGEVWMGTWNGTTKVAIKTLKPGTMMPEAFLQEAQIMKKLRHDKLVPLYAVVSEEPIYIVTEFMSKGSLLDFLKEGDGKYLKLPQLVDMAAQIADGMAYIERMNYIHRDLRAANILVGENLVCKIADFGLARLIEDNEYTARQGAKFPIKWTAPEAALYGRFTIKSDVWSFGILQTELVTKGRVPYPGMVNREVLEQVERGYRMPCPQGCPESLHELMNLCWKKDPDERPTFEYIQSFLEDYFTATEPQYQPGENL
Type: biochemical
In short: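 ADP-Glo luminescence measured inhibition of human recombinant Yes (a.a. 2–543) phosphorylation activity. In the first screen, each compound ran in 4 wells and inhibition rates were averaged. The second screen retested hits as compounds dissolved from fresh powder.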
In the case of CCc1ccc(CNc2cccc(NC(=O)OCCOC)c2)o1 [Compound Z1420504830], the “First screening IR (inhibition rate)” value was -7%. In the case of CCn1nc(NCc2cn[nH]c2-c2ccc(C)o2)cc1C1CC1 [Compound Z1421828757], the “First screening IR (inhibition rate)” value was 13%. O=C(Nc1cc(-c2cccc(F)c2F)[nH]n1)c1ccc2nncn2c1 [Compound Z1423687928] was tested, and the “First screening IR (inhibition rate)” value was 11%. In the case of c1ccc(-c2cn(Cc3nc(-c4cccs4)no3)nn2)cc1 [Compound Z1425793872], the “First screening IR (inhibition rate)” value was 13%. In the case of Cc1ccc(CNC(C)(CO)c2cccc(C(F)(F)F)c2)nc1 (stereo not shown) [Compound Z1426135114], the “First screening IR (inhibition rate)” value was 10%. O=C(Nc1n[nH]c(-c2ccoc2)n1)c1cc(-c2ccc(F)cc2)on1 [Compound Z1426521974] was tested, and the “First screening IR (inhibition rate)” value was 4%. Cc1cc(NCc2cn3cccnc3n2)c(C(N)=O)cc1F [Compound Z1430011273] was tested, and the “First screening IR (inhibition rate)” value was 12%. For Cc1cnn(-c2cccc(N3CCOC(c4ccc(F)cc4)C3)n2)c1 (stereo not shown) [Compound Z1430532131], the “First screening IR (inhibition rate)” value was 0%. With CC(C)c1nncn1CCNC(=O)C(c1cc(Cl)cc(Cl)c1)N(C)C (stereo not shown) [Compound Z1430823330] the “First screening IR (inhibition rate)” value was 5%. For O=C(c1cc(C2CC2)[nH]n1)N1CCC(=Cc2cc(Cl)ccc2Cl)CC1 [Compound Z1432870591], the “First screening IR (inhibition rate)” value was 2%. For Cn1nc(C2CCC2)cc1NC(=O)c1cc(Br)cnc1Cl [Compound Z1433129748], the “First screening IR (inhibition rate)” value was 0%. Clc1ccc(C2=NN/C(=N/c3ccccn3)SC2)s1 [Compound Z1446648080] was tested, and the “First screening IR (inhibition rate)” value was 8%. For NC(=O)c1cc(NC(=O)c2cccnc2Nc2cccc(F)c2)n[nH]1 [Compound Z1451063255], the “First screening IR (inhibition rate)” value was 2%. For CNC1CCN(C(=O)c2ccc3c(c2)ncn3C(C)C)C1.Cl.Cl (stereo not shown) [Compound Z1455845707], the “First screening IR (inhibition rate)” value was 13%. Cl.O=C(NCCC1CCCNC1)c1c(F)cccc1Br (stereo not shown) [Compound Z1457134316] was tested, and the “First screening IR (inhibition rate)” value was -2%. In the case of CN1CCN(C(=O)c2ccc(-c3cc(F)c(F)c(F)c3)cc2)C(CN)C1.Cl (stereo not shown) [Compound Z1457890473], the “First screening IR (inhibition rate)” value was 13%. With Cc1ccn2c(CNc3cc(C(N)=O)cc(F)c3C)cnc2c1 [Compound Z1462541066] the “First screening IR (inhibition rate)” value was 33%. In the case of Fc1cc(NCc2cn[nH]c2-c2cccnc2)ccc1-n1ccnc1 [Compound Z1462562385], the “First screening IR (inhibition rate)” value was 10%. For CN(C)C(=O)Cc1ccccc1NCc1ccc(-n2ccnc2)cc1 [Compound Z1462566317], the “First screening IR (inhibition rate)” value was 13%. O=C(OCCc1cn[nH]c1)c1ncoc1-c1ccco1 [Compound Z1463415737] was tested, and the “First screening IR (inhibition rate)” value was 57%. With Cc1nc(C2CCCN(C(=O)c3cncc(-c4ccc5c(c4)CCO5)c3)C2)n[nH]1 (stereo not shown) [Compound Z1464424071] the “First screening IR (inhibition rate)” value was -4%. For COC(=O)c1cnc(N2CCCCC2)cc1N1CCCCC1 [Compound Z1465442209], the “First screening IR (inhibition rate)” value was 0%. With N#CCCN(CCN1CCOCC1)Cc1cn[nH]c1-c1c(F)cccc1F [Compound Z1470747510] the “First screening IR (inhibition rate)” value was -6%. CCN(C(=O)c1ccc2c(c1)CC(c1ccccc1)OC2=O)c1ncc[nH]1 (stereo not shown) [Compound Z1474089033] was tested, and the “First screening IR (inhibition rate)” value was -8%. For COc1ccc2[nH]c(C)c(C(=O)NCC(C)(C)c3cccc(F)c3)c2c1 [Compound Z1482480186], the “First screening IR (inhibition rate)” value was 70%. CC1CCN(Cc2ncc(-c3cccc(Cl)c3)o2)CC1n1ccnc1 (stereo not shown) [Compound Z1492998619] was tested, and the “First screening IR (inhibition rate)” value was 33%. In the case of CC1c2cc(Cl)cc(Cl)c2CCN1C(=O)c1cnc2n1CCCC2 (stereo not shown) [Compound Z1494913871], the “First screening IR (inhibition rate)” value was 13%. For CC1CCN(C(=O)c2nc3ncc(Br)cn3n2)CC(C)C1 (stereo not shown) [Compound Z1500127626], the “First screening IR (inhibition rate)” value was 1%. In the case of CN(C)C(C)(C)CNC(=O)Cc1c[nH]c2cccc(Br)c12 [Compound Z1509620411], the “First screening IR (inhibition rate)” value was -4%. In the case of CC(C)c1cc(C(=O)N(C)C2CCCCC2N(C)C(=O)c2cc(C(C)C)[nH]n2)n[nH]1 (stereo not shown) [Compound Z1511609753], the “First screening IR (inhibition rate)” value was 5%. For Cc1nccn1-c1cncc(NCCOCCS(C)(=O)=O)n1 [Compound Z1513517715], the “First screening IR (inhibition rate)” value was 17%. In the case of Cc1cnc(COC(=O)c2cc(-c3ccccn3)ccc2Cl)cn1 [Compound Z1514764424], the “First screening IR (inhibition rate)” value was -4%. CC(=O)c1cccc(COC(=O)c2n[nH]c3c2CCCC3)c1 [Compound Z1515387931] was tested, and the “First screening IR (inhibition rate)” value was -3%. For NS(=O)(=O)C1CC=CCC1 (stereo not shown) [Compound Z1517090453], the “First screening IR (inhibition rate)” value was 1%. In the case of Cc1c(/C=C2/C(=O)Nc3ccc(F)cc32)cnn1C [Compound Z1517268554], the “First screening IR (inhibition rate)” value was 31%. In the case of COC(=O)Cn1ncc2c(N3CCCC34CCCCC4)ncnc21 [Compound Z1527076116], the “First screening IR (inhibition rate)” value was -3%. Cn1nc(Br)c2c(N3CCCC34CCCCC4)ncnc21 [Compound Z1527076521] was tested, and the “First screening IR (inhibition rate)” value was 38%. For CC(NCc1ccc(CN2CCN(C)CC2)cc1)c1cccc(CO)c1 (stereo not shown) [Compound Z1532484795], the “First screening IR (inhibition rate)” value was -4%. CCn1ncc2c(C(=O)NCC(C)(O)C(F)(F)F)cc(-c3cccs3)nc21 (stereo not shown) [Compound Z1535762010] was tested, and the “First screening IR (inhibition rate)” value was -4%. For Cc1nccn1-c1ccc(C(C)Nc2ncnc3nc(N)ccc23)cc1 (stereo not shown) [Compound Z1537172697], the “First screening IR (inhibition rate)” value was 53%. For Cc1cccc(NC2CCN(C(=O)c3c[nH]c4cccc(F)c34)CC2)n1 [Compound Z1538193381], the “First screening IR (inhibition rate)” value was 3%. With O=S1(=O)CCC(CNS(=O)(=O)c2c[nH]c3nccc(Cl)c23)C1 (stereo not shown) [Compound Z1547285504] the “First screening IR (inhibition rate)” value was -14%. With CCc1cc(N2CCC(NCc3c(Cl)cccc3N3CCCC3)CC2)ncn1 [Compound Z1549038619] the “First screening IR (inhibition rate)” value was 0%. Cc1ccc(S(=O)(=O)C2CS(=O)(=O)CC2O)c(C)c1 (stereo not shown) [Compound Z1549639934] was tested, and the “First screening IR (inhibition rate)” value was -1%. With CC(C)c1cc(NS(=O)(=O)c2cc(F)c(Br)cc2F)n[nH]1 [Compound Z1551172092] the “First screening IR (inhibition rate)” value was 5%. O=C1NCc2cccc(NS(=O)(=O)c3c(Cl)ccnc3Cl)c21 [Compound Z1556993367] was tested, and the “First screening IR (inhibition rate)” value was -3%. Cc1cc(N2CCN(C(=O)Nc3cc(C)c4cn[nH]c4c3)CC2)nc(C)n1 [Compound Z1557589830] was tested, and the “First screening IR (inhibition rate)” value was 42%. Cc1nc(CN)ccc1C(=O)Nc1ccc(Oc2ccc(Cl)cc2Cl)c(F)c1.Cl [Compound Z1561183584] was tested, and the “First screening IR (inhibition rate)” value was -5%. For CC(C)(C)Oc1cccc(CN2CCC(c3c[nH]c4ncccc34)CC2)n1 [Compound Z1564730073], the “First screening IR (inhibition rate)” value was 12%. CC1CN(C(=O)C2CCS(=O)(=O)C2)c2cc(F)ccc2CN1C(=O)OC(C)(C)C (stereo not shown) [Compound Z1566941984] was tested, and the “First screening IR (inhibition rate)” value was -8%. In the case of CN(C)c1nccc(N2CCN(Cc3ccc(Cl)o3)CC2)n1 [Compound Z1569249080], the “First screening IR (inhibition rate)” value was 27%. Cn1c(=O)c2ccc(C(=O)NCc3cc(Cl)ccn3)nc2n(C)c1=O [Compound Z1574547064] was tested, and the “First screening IR (inhibition rate)” value was -2%. CC(C)(C)c1ccc(NC(=O)/C=C/c2cncc(O)c2)cc1 [Compound Z1574815119] was tested, and the “First screening IR (inhibition rate)” value was 6%.

Same assay, conditions: second screening, dissolved from fresh powder; n = 4; 10 μmol L−1 compound
Cc1ccn2c(CNc3cc(C(N)=O)cc(F)c3C)cnc2c1 [Compound Z1462541066] was tested, and the “Second screening IR (inhibition rate)” value was -26%. For Cc1c(/C=C2/C(=O)Nc3ccc(F)cc32)cnn1C [Compound Z1517268554], the “Second screening IR (inhibition rate)” value was 16%.
